From patent US4128541A, “Pentapeptide with morphine- like activity” (American Home Products Corporation, priority 1976, dated 1978)
Ends that are not written are not given here.

Legend:
rats [1] = test: rat-tail flick method of D'Amour and Smith (analgesia); assay type: in vivo; conditions: for Mean % Change ± SEM (latency, drug minus baseline) / Mean Latency ± SEM, Drug: injected into the lateral ventricle in Ringer's solution, 100 μg (morphine sulfate 10 μg)
Method: In this test method, which is a standard test for analgesia, a light beam is focused on the tip of the rat's tail, and the pain threshold of the animal is measured by the latency of the rat to remove his tail from the noxious heat source. When tested by the rat-tail flick method by intracerebroventricular injection, according to the procedure of Belluzzi et al., Nature, 260, 625 (1976), the pentapeptide H-Tyr-Gly-Gly-Phe-Ser-OHproduced the effects set forth in Table I.
*All drugs were dissolved in […] of Ringer's solution and injected into
the lateral ventricle through permanently-indwelling cannulae.
*Subcutaneous in saline solution.

guinea pig ileum [2] = conditions: literature, Hughes et al.; cited from earlier work
mouse vas deferens = conditions: literature, Hughes et al.; cited from earlier work
rats [3] = conditions: injection in the brain ventricle in rats; fully reversible by naloxone; Beluzzi et al.; cited from earlier work
[4] = tested on: opiate receptor (3H-naloxone binding) in brain homogenates; conditions: literature; cited from earlier work
rats [5] = test: rat-tail flick method of D'Amour and Smith (analgesia); assay type: in vivo; conditions: intravenous (i.v.) injection, 5 mg/kg
opiate receptors = test: binding to opiate receptors in vitro; conditions: effect blocked by naloxone
guinea pig ileum [6] = test: electrically-induced contraction of guinea pig ileum; conditions: effect blocked by naloxone
From the text: Enkephalin, a natural opiate receptor agonist in brain, has been identified [see Hughes et al., Nature, 256, 577(1975)] as a mixture of two pentapeptides: H-Tyr-Gly-Gly-Phe-Met-OH (methionine-enkephalin) and H-Tyr-Gly-Gly-Phe-Leu-OH (leucine-enkephalin).

[7] = rat-tail flick, 10 mg/kg subcutaneous in saline solution

## CN1CC[C@]23c4c5ccc(O)c4O[C@H]2[C@@H](O)C=C[C@H]3[C@H]1C5.O=S(=O)(O)O [Morphine Sulfate]
Rats [1]; rat-tail flick
  Mean % Change ± SEM (latency, drug minus baseline): 65.4%
  Mean Latency ± SEM, Drug: 6.59

## H-Tyr-Gly-Gly-Phe-Leu-OH [leucine-enkephalin]
Guinea pig ileum [2]
  block of electrically evoked contractions of guinea pig ileum (in words): mimic the ability of morphine to block
Mouse vas deferens
  block of electrically evoked contractions of mouse vas deferens (in words): mimic the ability of morphine to block
Rats [3]
  analgesia (in words): profound analgesia
[4]
  inhibition of stereospecific receptor binding of 3H-naloxone (in words): inhibit

## YGGFS [H-Tyr-Gly-Gly-Phe-Ser-OH, L-Tyrosyl-Glycyl-Glycyl-L-Phenylalanyl-L-Serine]
Rats [1]; injection into the lateral brain ventricle, significant difference versus vehicle
  pain threshold (in words): increase in pain threshold
Rats [1]; [7]
  Mean % Change ± SEM (latency): 26.16 ± 14.36%
  Mean Latency ± SEM, Pentapeptide: 5.15 ± 0.60
Rats [1]; rat-tail flick
  Mean % Change ± SEM (latency, drug minus baseline): 39.25%
  Mean Latency ± SEM, Drug: 5.77
Rats [1]; subcutaneous (s.c.) injection, 10 mg/kg in saline
  analgesic effect (in words): weak analgesic effect
Rats [5]
  analgesic activity (in words): no analgesic activity
Opiate receptors
  binding to opiate receptors in vitro (in words): weak binding
Guinea pig ileum [6]
  block of electrically-induced contraction of guinea pig ileum (in words): blocks

## CSCC[C@H](NC(=O)[C@H](Cc1ccccc1)NC(=O)CNC(=O)CNC(=O)[C@@H](N)Cc1ccc(O)cc1)C(=O)O [Methionine-Enkephalin, H-Tyr-Gly-Gly-Phe-Met-OH]
Guinea pig ileum [2]
  block of electrically evoked contractions of guinea pig ileum (in words): mimic the ability of morphine to block
Rats [1]; rat-tail flick
  Mean % Change ± SEM (latency, drug minus baseline): 37.2%
  Mean Latency ± SEM, Drug: 5.19
Mouse vas deferens
  block of electrically evoked contractions of mouse vas deferens (in words): mimic the ability of morphine to block
Rats [3]
  analgesia (in words): profound analgesia
[4]
  inhibition of stereospecific receptor binding of 3H-naloxone (in words): inhibit
